Data on one compound can be found in patent US8367830B2, “Methods for the identification of phosphatidylinositol kinase interacting molecules and for the purification of phosphatidylinositol kinase proteins” (Cellzome AG, priority 2009, dated 2013).

The target in test [1] is CaMK2g (Homo sapiens, UniProt Q13555). Nature of the test: Kinobeads competition binding, immobilized CZC31207, Jurkat/Ramos lysate mix. Also on record: capturing and identification of kinases from amix of Jurkat and Ramos cell lysates; endogenous in cells; host or cells: mix of Jurkat and Ramos cell lysates. The conditions noted are these: 10 μM free compound; mix of Jurkat and Ramos cell lysates. The protocol:
(§1) To the first aliquot of cell lysate 10 μM of the free compound CZC31207 was added and allowed to bind to proteins in the lysate. Then the affinity matrix with the immobilized compound was added to capture proteins that were not interacting with the previously added free compound. Beads were separated from the lysate and bead bound proteins were eluted in SDS sample buffer and subsequently separated by SDS-Polyacrylamide gel electrophoresis (FIG. 5). Suitable gel bands were cut out and subjected to in-gel proteolytic digestion with trypsin. The second lysate aliquot was processed identically, however no free compound was added (DMSO solvent control). Peptides originating from samples 1 and 2 were labeled with iTRAQ reagents (iTRAQ 114 and iTRAQ 116) and the combined samples were analyzed with a nano-flow liquid chromatography system coupled online to a tandem mass spectrometer (LC-MS/MS) experiment followed by iTRAQ reporter ion quantification in the MS/MS spectra as described in Example 2.
(§2) Jurkat cells (ATCC number T1B-152) and Ramos cells (ATCC number CRL-1596) were either obtained from an external supplier (CIL SA, Mons, Belgium) or grown in one litre Spinner flasks (Integra Biosciences, #182101) in suspension in RPMI 1640 medium (Invitrogen, #21875-034) supplemented with 10% Fetal Bovine Serum (Invitrogen, #10270-106) at a density between 0.2×10^6 and 1.0×10^6 cells/ml. […]

Test [2] addresses PIK4Ca (Homo sapiens, UniProt P42356). The description is as above. Also on record: capturing and identification of kinases from amix of Jurkat and Ramos cell lysates; endogenous in cells; host or cells: mix of Jurkat and Ramos cell lysates. The conditions noted are these: 10 μM free compound; mix of Jurkat and Ramos cell lysates. The protocol: as §1, §2
Test [3] has as its target T1, JNK2 (Homo sapiens, UniProt P45984).
T1 construct: endogenous in cells; host or cells: mixed lysate of HeLa cells and placenta
Put plainly: Kinobeads competition binding, immobilized CZC31207, HeLa/placenta lysate mix. As to conditions: 10 μM free compound; mixed HeLa and placenta cell lysates. On the procedure:
(§3) To the first aliquot of cell lysate 10 μM of the free compound (CZC31207) was added and allowed to bind to proteins in the lysate. Then the affinity matrix with the immobilized compound (Example 1) was added to capture proteins that were not interacting with the previously added free compound. Beads were separated from the lysate and bead bound proteins were eluted in SDS sample buffer and subsequently separated by SDS-Polyacrylamide gel electrophoresis (FIG. 4). Suitable gel bands were cut out and subjected to in-gel proteolytic digestion with trypsin. The second lysate aliquot was processed identically, however no free compound was added (DMSO solvent control). Peptides originating from samples 1 and 2 were labeled with iTRAQ reagents (iTRAQ 115 and iTRAQ 117) and the combined samples were analyzed with a nano-flow liquid chromatography system coupled online to a tandem mass spectrometer (LC-MS/MS) experiment followed by iTRAQ reporter ion quantification in the MS/MS spectra (Ross et al., 2004. Mol. Cell. Proteomics 3(12):1154-1169). Further experimental protocols can be found in WO2006/134056 and a previous publication (Bantscheff et al., 2007. Nature Biotechnology 25, 1035-1044).
(§4) Cells were homogenized in a Potter S homogenizer in lysis buffer: 50 mM Tris-HCl, 0.8% NP40, 5% glycerol, 150 mM NaCl, 1.5 mM MgCl2, 25 mM NaF, 1 mM sodium vanadate, 1 mM DTT, pH 7.5. One complete EDTA-free tablet (protease inhibitor cocktail, Roche Diagnostics, 1 873 580) per 25 ml buffer was added. The material was dounced 20 times using a mechanized POTTER S, transferred to 50 ml falcon tubes, incubated for 30 minutes rotating at 4° C. and spun down for 10 minutes at 20,000×g at 4° C. (10,000 rpm in Sorvall SLA600, precooled). The supernatant was transferred to an ultracentrifuge (UZ)-polycarbonate tube (Beckmann, 355654) and spun for 1 hour at 145.000×g at 4° C. (40.000 rpm in Ti50.2, precooled). The supernatant was transferred again to a fresh 50 ml falcon tube, the protein concentration was determined by a Bradford assay (BioRad) and samples containing 50 mg of protein per aliquot were prepared. The samples were immediately used for experiments or frozen in liquid nitrogen and stored frozen at −80° C.
Sepharose-beads with the immobilized compound (100 μl beads per pull-down experiment) were equilibrated in lysis buffer and incubated with a cell lysate sample containing 50 mg of protein on an end-over-end shaker (Roto Shake Genie, Scientific Industries Inc.) for 2 hours at 4° C. Beads were collected, transferred to Mobicol-columns (MoBiTech 10055) and washed with 10 ml lysis buffer containing 0.4% NP40 detergent, followed by 5 ml lysis buffer containing 0.2% detergent. To elute bound proteins, 60 μl 2×SDS sample buffer was added to the column. The column was incubated for 30 minutes at 50° C. and the eluate was transferred to a siliconized microfuge tube by centrifugation. Proteins were then alkylated with 108 mM iodoacetamid. Proteins were then separated by SDS-Polyacrylamide electrophoresis (SDS-PAGE).
Gel-separated proteins were digested in-gel essentially following a previously described procedure (Shevchenko et al., 1996, Anal. Chem. 68:850-858). Briefly, gel-separated proteins were excised from the gel using a clean scalpel, destained twice using 100 μl 5 mM triethylammonium bicarbonate buffer (TEAB; Sigma T7408) and 40% ethanol in water and dehydrated with absolute ethanol. Proteins were subsequently digested in-gel with porcine trypsin (Promega) at a protease concentration of 10 ng/μl in 5 mM TEAB. Digestion was allowed to proceed for 4 hours at 37° C. and the reaction was subsequently stopped using 5 μl 5% formic acid.
Gel plugs were extracted twice with 20 μl 1% formic acid and three times with increasing concentrations of acetonitrile. Extracts were subsequently pooled with acidified digest supernatants and dried in a vacuum centrifuge. […]

For test [4], the target named is MAP3K1 (Homo sapiens, UniProt Q13233). Nature of the test: Kinobeads competition binding, immobilized CZC31207, Jurkat/Ramos lysate mix. Also on record: endogenous in cells; host or cells: mixed lysate of Jurkat and Ramos cells. As to conditions: 10 μM free compound; mix of Jurkat and Ramos cell lysates. The protocol:
as §1, §2

Test [5] addresses BCKDK (Homo sapiens, UniProt O14874). The description is as above. Also on record: endogenous in cells; host or cells: mixed lysate of Jurkat and Ramos cells. As to conditions: 10 μM free compound; mix of Jurkat and Ramos cell lysates. The protocol:
as §1, §2

The target of test [6] is DNAPK (Homo sapiens, UniProt P78527). Nature of the test: Kinobeads competition binding, immobilized CZC31207, HeLa/placenta lysate mix. On the set-up: endogenous in cells; host or cells: mixed lysate of HeLa cells and placenta. The conditions noted are these: 10 μM free compound; mixed HeLa and placenta cell lysates. On the procedure:
as §3
as §4, with “(40.000 rpm in Ti50.2, precooled).” left out, “The samples were immediately used for experiments or frozen in liquid nitrogen and stored frozen at −80° C.” left out

T1 sequence (P45984 whole entry): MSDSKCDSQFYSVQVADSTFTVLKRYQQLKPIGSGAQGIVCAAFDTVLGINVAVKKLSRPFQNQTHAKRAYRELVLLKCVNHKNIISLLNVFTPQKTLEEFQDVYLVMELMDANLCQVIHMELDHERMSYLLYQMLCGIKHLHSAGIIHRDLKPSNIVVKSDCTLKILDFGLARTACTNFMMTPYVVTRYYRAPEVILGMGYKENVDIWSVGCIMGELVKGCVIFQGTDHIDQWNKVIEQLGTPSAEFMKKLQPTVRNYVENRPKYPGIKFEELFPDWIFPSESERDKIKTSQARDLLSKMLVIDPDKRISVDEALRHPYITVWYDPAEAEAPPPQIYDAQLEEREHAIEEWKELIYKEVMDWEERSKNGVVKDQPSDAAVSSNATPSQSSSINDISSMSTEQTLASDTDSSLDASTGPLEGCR
Sequence of DNAPK (P78527 whole entry): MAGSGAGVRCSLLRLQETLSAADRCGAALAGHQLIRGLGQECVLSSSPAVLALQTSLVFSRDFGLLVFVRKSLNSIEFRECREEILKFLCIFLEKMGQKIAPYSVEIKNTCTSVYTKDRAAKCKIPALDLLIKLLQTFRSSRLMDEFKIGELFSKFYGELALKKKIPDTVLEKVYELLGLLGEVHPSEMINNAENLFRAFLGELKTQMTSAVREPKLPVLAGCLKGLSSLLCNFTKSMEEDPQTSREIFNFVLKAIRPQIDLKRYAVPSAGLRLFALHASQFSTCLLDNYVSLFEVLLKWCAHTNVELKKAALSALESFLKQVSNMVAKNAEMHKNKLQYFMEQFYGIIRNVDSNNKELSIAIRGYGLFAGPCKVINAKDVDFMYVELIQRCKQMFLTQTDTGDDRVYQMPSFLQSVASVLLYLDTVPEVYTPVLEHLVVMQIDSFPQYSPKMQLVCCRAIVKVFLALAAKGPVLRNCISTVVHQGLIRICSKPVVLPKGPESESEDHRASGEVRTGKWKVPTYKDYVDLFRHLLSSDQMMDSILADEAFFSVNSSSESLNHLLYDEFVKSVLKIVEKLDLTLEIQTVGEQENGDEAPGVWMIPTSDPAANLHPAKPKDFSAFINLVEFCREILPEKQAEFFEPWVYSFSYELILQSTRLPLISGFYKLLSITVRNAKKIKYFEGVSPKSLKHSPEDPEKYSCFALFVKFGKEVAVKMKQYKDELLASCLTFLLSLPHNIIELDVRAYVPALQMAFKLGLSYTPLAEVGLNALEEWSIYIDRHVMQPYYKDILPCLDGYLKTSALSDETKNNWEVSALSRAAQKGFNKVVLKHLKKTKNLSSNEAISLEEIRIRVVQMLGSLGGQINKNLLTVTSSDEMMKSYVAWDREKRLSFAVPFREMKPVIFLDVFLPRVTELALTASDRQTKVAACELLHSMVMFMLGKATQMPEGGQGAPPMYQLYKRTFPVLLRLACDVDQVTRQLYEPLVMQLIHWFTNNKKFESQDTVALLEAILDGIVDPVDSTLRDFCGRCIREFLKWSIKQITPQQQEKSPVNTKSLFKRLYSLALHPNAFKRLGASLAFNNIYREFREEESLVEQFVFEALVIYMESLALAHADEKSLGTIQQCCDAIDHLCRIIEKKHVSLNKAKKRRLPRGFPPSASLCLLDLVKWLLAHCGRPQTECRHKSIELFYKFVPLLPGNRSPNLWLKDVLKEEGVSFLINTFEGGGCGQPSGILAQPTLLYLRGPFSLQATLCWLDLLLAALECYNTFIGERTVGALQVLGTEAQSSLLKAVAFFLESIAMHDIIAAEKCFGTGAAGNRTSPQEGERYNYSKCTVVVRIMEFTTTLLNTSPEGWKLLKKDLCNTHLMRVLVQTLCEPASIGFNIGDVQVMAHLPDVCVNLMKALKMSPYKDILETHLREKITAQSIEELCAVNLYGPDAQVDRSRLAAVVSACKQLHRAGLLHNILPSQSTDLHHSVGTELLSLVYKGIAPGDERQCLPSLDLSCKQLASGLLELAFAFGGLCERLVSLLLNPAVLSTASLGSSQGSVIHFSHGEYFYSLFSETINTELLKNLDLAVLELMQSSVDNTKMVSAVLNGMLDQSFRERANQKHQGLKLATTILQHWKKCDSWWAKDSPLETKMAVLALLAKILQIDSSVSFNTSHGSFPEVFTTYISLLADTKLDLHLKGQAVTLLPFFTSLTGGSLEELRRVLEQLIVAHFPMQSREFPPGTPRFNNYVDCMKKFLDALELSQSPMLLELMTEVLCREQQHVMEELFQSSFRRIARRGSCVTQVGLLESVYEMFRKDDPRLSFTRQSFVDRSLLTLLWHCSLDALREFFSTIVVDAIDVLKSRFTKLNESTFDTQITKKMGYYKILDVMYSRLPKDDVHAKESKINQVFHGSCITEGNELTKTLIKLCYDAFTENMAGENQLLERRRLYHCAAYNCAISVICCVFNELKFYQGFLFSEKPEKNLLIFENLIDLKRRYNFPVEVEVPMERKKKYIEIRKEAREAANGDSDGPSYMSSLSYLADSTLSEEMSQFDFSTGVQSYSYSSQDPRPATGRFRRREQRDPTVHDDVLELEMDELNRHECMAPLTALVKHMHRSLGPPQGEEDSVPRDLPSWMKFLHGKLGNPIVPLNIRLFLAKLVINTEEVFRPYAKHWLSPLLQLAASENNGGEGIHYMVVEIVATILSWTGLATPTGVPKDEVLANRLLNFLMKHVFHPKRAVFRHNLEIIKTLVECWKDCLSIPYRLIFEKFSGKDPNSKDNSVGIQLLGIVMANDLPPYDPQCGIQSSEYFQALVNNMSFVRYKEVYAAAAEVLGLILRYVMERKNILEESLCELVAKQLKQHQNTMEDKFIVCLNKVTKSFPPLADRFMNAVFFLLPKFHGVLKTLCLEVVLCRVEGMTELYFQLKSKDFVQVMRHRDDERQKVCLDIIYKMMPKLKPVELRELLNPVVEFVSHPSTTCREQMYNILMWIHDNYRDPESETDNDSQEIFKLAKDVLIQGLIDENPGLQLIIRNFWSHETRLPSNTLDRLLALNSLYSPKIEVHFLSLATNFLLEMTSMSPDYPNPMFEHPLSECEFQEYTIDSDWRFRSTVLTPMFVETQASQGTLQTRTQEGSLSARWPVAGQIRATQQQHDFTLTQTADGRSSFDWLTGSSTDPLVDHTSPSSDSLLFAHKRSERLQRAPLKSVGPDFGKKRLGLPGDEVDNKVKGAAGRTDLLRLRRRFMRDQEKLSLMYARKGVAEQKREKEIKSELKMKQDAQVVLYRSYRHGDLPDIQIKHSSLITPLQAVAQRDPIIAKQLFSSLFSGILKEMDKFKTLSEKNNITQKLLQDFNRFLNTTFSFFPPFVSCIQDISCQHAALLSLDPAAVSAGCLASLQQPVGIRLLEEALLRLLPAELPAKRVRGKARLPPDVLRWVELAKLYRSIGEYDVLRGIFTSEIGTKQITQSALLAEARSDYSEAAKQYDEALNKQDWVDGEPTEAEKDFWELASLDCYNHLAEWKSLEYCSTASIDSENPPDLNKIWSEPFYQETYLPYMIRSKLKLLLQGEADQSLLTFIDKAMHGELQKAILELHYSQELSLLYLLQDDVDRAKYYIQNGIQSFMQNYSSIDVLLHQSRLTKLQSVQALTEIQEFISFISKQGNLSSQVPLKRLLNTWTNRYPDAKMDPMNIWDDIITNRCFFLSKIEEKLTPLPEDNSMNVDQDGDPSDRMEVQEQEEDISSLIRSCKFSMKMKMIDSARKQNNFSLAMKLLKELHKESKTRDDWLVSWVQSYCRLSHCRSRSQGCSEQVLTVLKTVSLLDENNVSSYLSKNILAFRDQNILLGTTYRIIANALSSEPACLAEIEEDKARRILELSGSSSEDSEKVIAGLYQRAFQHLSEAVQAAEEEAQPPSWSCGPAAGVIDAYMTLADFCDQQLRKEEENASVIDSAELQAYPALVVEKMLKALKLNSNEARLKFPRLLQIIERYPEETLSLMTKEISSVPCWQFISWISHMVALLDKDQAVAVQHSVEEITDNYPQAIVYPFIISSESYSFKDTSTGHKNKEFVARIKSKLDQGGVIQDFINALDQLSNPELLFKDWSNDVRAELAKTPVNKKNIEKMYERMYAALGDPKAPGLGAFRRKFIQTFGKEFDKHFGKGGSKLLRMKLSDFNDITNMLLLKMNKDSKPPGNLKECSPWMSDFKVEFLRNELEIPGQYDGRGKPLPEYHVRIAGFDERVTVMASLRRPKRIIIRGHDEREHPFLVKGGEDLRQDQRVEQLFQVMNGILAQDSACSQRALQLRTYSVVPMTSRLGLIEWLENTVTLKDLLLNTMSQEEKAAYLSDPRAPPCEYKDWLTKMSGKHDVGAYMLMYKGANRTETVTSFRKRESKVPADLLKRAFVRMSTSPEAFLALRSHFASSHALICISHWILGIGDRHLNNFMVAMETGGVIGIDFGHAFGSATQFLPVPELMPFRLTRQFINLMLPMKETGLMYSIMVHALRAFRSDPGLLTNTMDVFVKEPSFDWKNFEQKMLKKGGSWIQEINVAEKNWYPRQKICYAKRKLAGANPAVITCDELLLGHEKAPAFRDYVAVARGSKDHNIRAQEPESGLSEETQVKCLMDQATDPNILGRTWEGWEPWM
Sequence of CaMK2g (Q13555 whole entry): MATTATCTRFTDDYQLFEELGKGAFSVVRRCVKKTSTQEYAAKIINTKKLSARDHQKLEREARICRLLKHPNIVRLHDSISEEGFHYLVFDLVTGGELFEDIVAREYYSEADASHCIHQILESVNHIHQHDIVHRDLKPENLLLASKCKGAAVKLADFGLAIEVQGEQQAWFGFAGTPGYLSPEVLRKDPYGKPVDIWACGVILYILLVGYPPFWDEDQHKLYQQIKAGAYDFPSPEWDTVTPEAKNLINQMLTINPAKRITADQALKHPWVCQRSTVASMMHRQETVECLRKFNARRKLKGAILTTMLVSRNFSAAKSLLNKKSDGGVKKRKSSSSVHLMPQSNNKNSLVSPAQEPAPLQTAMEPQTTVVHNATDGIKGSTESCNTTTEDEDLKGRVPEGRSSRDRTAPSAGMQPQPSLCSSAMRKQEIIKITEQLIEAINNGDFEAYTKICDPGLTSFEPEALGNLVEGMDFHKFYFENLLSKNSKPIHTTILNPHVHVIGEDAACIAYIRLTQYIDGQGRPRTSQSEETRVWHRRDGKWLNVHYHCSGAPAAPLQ

As for `CC(C)NS(=O)(=O)c1cncc(-c2ccc3nc(NC(=O)NCCN)nn3c2)c1` [CZC31207, 5-(2-(3-(2-aminoethyl)ureido)-[1,2,4]triazolo[1,5-a]pyridin-6-yl)-N-isopropylpyridine-3-sulfonamide], the “Competition % CaMK2g” value in test [1] is reported as −3.1%. In addition, the “Competition % PIK4Ca” value in test [2] is 28.5%. Further, the “Competition % JNK2” value in test [3] amounted to 24.6%. The “Competition % MAP3K1” value in test [4] stood at 14.1%. For the same compound, the “Competition % BCKDK” value in test [5] is reported as −0.1%. In addition, the “Competition % DNAPK” value in test [6] stood at 35.3%.
